In the supplement of paper PMC10307832:

Experiments:
Assay in all cases: relative viability (nuclei count vs DMSO), 5 days (fraction); higher = more cells survive
[1] = compound: CNC(=O)c1ccccc1Sc1ccc2c(/C=C/c3ccccn3)n[nH]c2c1 [Axitinib] + CS(=O)(=O)N1CCN(Cc2cc3nc(-c4cccc5[nH]ncc45)nc(N4CCOCC4)c3s2)CC1 [Pictilisib] (partner 1 µM)
How it was run: (§1)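 Lung cancer cell lines in 1536-well plates were dosed by pin tool the day after seeding, either with one drug alone or with a fixed anchor-drug dose plus five library-drug doses (not always all listed) in √10 steps. After 5 days, cells were fixed and their nuclei stained in one step (final 0.05% Triton X-100, 1% formaldehyde, 1 ug/ml Hoechst), then counted on 4× images. Relative viability is the nuclei count in treated wells divided by that in vehicle wells. Values are medians of duplicate plates.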

[2] = compound: CNC(=O)c1ccccc1Sc1ccc2c(/C=C/c3ccccn3)n[nH]c2c1 [Axitinib] + C[C@]1(O)C[C@@H](c2nc(-c3ccc4ccc(-c5ccccc5)nc4c3)c3c(N)nccn32)C1 [Linsitinib] (partner 1 µM)
How it was run: as §1

[3] = compound: Nc1nc(Nc2ccc3c(c2)CC[C@@H](N2CCCC2)CC3)nn1-c1cc2c(nn1)-c1ccccc1CCC2 [Bemcentinib] + CC(=O)c1c(C)c2cnc(Nc3ccc(N4CCNCC4)cn3)nc2n(C2CCCC2)c1=O [Palbociclib] (partner 0.5 µM)
How it was run: as §1

[4] = compound: Nc1nc(Nc2ccc3c(c2)CC[C@@H](N2CCCC2)CC3)nn1-c1cc2c(nn1)-c1ccccc1CCC2 [Bemcentinib] + Nc1nc2[nH]cc(CCc3ccc(C(=O)N[C@@H](CCC(=O)O)C(=O)O)cc3)c2c(=O)[nH]1 [Pemetrexed] (partner 0.2 µM)
How it was run: as §1

Row | Cell Line | relative viability ([1]; first compound 0.005 µM) | relative viability ([1]; first compound 0.01581 µM) | relative viability ([1]; first compound 0.05 µM) | relative viability ([1]; first compound 0.1581 µM) | relative viability ([1]; first compound 0.5 µM) | relative viability ([2]; first compound 0.005 µM) | relative viability ([2]; first compound 0.01581 µM) | relative viability ([2]; first compound 0.05 µM) | relative viability ([2]; first compound 0.1581 µM) | relative viability ([2]; first compound 0.5 µM) | relative viability ([3]; first compound 0.04 µM) | relative viability ([3]; first compound 0.1265 µM) | relative viability ([3]; first compound 0.4 µM) | relative viability ([3]; first compound 1.265 µM) | relative viability ([3]; first compound 4 µM) | relative viability ([4]; first compound 0.04 µM) | relative viability ([4]; first compound 0.1265 µM) | relative viability ([4]; first compound 0.4 µM) | relative viability ([4]; first compound 1.265 µM) | relative viability ([4]; first compound 4 µM)
1 | HCC-827 | 0.911 | 1.04 | 0.947 | 1.08 | 0.889 | 0.927 | 0.907 | 0.963 | 0.977 | 0.999 | 0.529 | 0.537 | 0.461 | 0.526 | 0.471 | 0.267 | 0.267 | 0.266 | 0.262 | 0.286
2 | H3255 | 0.485 | 0.288 | 0.432 | 0.492 | 0.435 | 1.08 | 0.797 | 0.83 | 0.917 | 1.03 | 0.283 | 0.305 | 0.297 | 0.275 | 0.334 | 0.533 | 0.616 | 0.585 | 0.624 | 0.517
3 | LOU-NH91 | 0.528 | 0.529 | 0.557 | 0.544 | 0.52 | 1.08 | 0.595 | 0.997 | 0.948 | 0.961 | 0.521 | 0.564 | 0.525 | 0.513 | 0.537 | 0.408 | 0.369 | 0.4 | 0.45 | 0.376
4 | LK-2 | 0.556 | 0.434 | 0.512 | 0.506 | 0.486 | 0.543 | 0.471 |  | 0.439 | 0.415 | 0.78 | 0.75 | 0.934 | 0.728 | 0.665 | 0.246 | 0.323 | 0.294 | 0.256 | 0.294
5 | EPLC-272H | 0.317 | 0.289 | 0.391 | 0.272 | 0.313 | 1.33 | 1.1 | 1.32 | 1.12 | 1.07 | 0.287 | 0.309 | 0.361 | 0.302 | 0.34 | 0.313 | 0.337 | 0.371 | 0.319 | 0.291
6 | NCI-H441 | 0.456 | 0.563 | 0.413 | 0.571 | 0.542 | 0.593 | 0.52 | 0.519 | 0.582 | 0.576 | 0.197 | 0.202 | 0.227 | 0.195 | 0.223 | 0.24 | 0.243 | 0.267 | 0.245 | 0.275
7 | NCI-H23 | 0.535 | 0.574 | 0.505 | 0.477 | 0.508 | 0.66 | 0.618 | 0.653 | 0.587 | 0.721 | 0.443 | 0.472 | 0.558 | 0.457 | 0.519 | 0.626 | 0.724 | 0.941 | 0.763 | 0.738
8 | NCI-H647 | 0.439 | 0.416 | 0.425 | 0.478 | 0.399 | 1.23 | 1.27 | 1.19 | 1.25 | 1.44 | 0.43 | 0.445 | 0.387 | 0.315 | 0.462 | 0.175 | 0.164 | 0.199 | 0.156 | 0.152
9 | LXF-289 | 0.823 | 0.732 | 0.833 | 0.765 | 0.742 | 0.991 | 0.952 | 0.972 | 0.962 | 0.968 | 0.633 | 0.629 | 0.581 | 0.558 | 0.622 | 0.907 | 0.974 | 0.984 | 0.993 | 0.92
